# Measurements: PMC10349806 (Nature Communications, 2023)
# “And” between values parts separate entries of the source, which are not always exact repeats. Equal entries are not always repeated.
# What was measured:
# PfCRT variant E207R = test: CQ uptake assay, oocytes expressing E207R; assay type: cell-based, Plasmodium falciparum
# Procedure: (§1) Site-directed mutagenesis of PfCRT^Dd2 was performed as described using the megaprimer method with overlap extension[21],[54]. The primer pairs used are listed in Supplementary Table 6. Please note that a codon-optimized and oocyte-adapted version of PfCRT^Dd2 was used[22] (Supplementary Fig. 16). The resulting DNA fragment was cloned into the SP64T expression vector and verified by sequencing.
# (§2) Oocytes were obtained as described previously. Briefly, adult (>2 years old) female X. laevis frogs (NASCO) were anesthetized in a cooled solution of ethyl 3-amino benzoate methanesulfonate (0.1%, w/v), followed by a surgical removal of parts of the ovary. The ovary lobes were carefully dissected and small pieces of oocytes were incubated in Ca^2+-free ND96 buffer (96 mM NaCl, 2 mM KCl, 1 mM MgCl2 buffered with 5 mM HEPES/NaOH, pH 7.5) supplemented with collagenase D (0.1%, w/v; Roche), BSA (0.5%, w/v), and 9 mm Na2HPO4 at 18 °C for 14-16 h while gentle shaking. After incubation, the oocytes were carefully washed several times with ND96 buffer (96 mM NaCl, 2 mM KCl, 1.8 mM CaCl2, 1 mM MgCl2 buffered with 5 mM HEPES/NaOH, pH 7.5) supplemented with 100 mg l^−1 gentamycin). Defolliculated and healthy-looking stage V-VI oocytes were manually selected for RNA microinjection. The RNA was generated as following: The codon-optimized sequences of PfCRT variants were cloned into the pSP64T expression vector. After vector linearization using the restriction endonucleases BamHI or SalI (New England Biolabs), transcription was performed using the in vitro SP6 mMessage mMachine Kit (Ambion)[34]. The obtained RNA was kept at −80 °C and diluted with nuclease-free water to a concentration of 0.6 μg μl^−1. Precision-bore glass capillary tubes (3.5-inch glass capillaries; Drummond Scientific Co.) were pulled on a vertical puller (P-87 Flaming/Brown micropipette puller, Sutter Instrument Co.), graduated, and placed on a microinjector (Nanoject II Auto-Nanoliter Injector, Drummond Scientific Co.). 50 nl of nuclease-free water alone (control oocytes) or 50 nl of 0.6 μg μl^−1 RNA were injected under stereomicroscopic control. Injected oocytes were incubated for 46–72 h at 18 °C with twice-daily buffer changes before usage in experiments.
# (§3) Drug uptake assays were performed as described previously[21],[22],[24],[34]. […] The direction of radio-labeled drug transport is here from the mostly acidic extracellular solution (pH 4.5 or 6.0, as indicated) into the oocyte cytosol (pH ∼ 7.2), which corresponds to the efflux of drug from the acidic digestive vacuole (pH 5.2) into the parasite cytoplasm (pH 7.2). The topology of PfCRT in the oolemma is such that both the N- and C-terminus face the extracellular milieu[3],[22]. In the parasite, the N- and C-terminus face the lumen of the digestive vacuole. CQ uptake kinetics were performed by incubating oocytes in ND96 buffer adjusted to a pH of 4.5, 5.0, 5.5, or 6.0 and supplemented with 50 nM [^3H]CQ and one of 7 different CQ concentrations (10 µM, 50 µM, 100 µM, 200 µM, 300 µM, 400 µM, 500 µM CQ). The reaction was stopped at the 60 min time point, which is in the linear uptake range[22],[34] (Supplementary Fig. 17). For determination of the amount of drug uptake for each oocyte, the reaction medium was removed and the oocytes were washed three times with 2 ml of ice-cold ND96 buffer. Each oocyte was individually transferred to a scintillation vial containing 5% sodium dodecyl sulfate (200 μl) for lysis. The radioactivity of each sample was measured using a liquid scintillation analyzer Tri-Carb 4910 TR (PerkinElmer). Oocytes that were injected with water instead of RNA were analyzed in parallel, representing the uptake of a drug by diffusion and/or endogenous permeation pathways. The resulting value represents the “background“ level of drug accumulation in oocytes (in-depth discussion in[22]). […]
# [1] = molecular target: T1, PfCRT variant CD2 (D24A, D57A, Y179A, F235A, D241A, E406A, D419A) (Plasmodium falciparum, UniProt Q9N623, A220S/D241A/D24A/D419A/D57A/E406A/F235A/I356T/K76T/M74I/N326S/N75E/Q271E/R371I/Y179A); test: CQ uptake assay, oocytes expressing CD2; assay type: cell-based
# T1 sequence (Q9N623 1-424 D24A/D57A/M74I/N75E/K76T/Y179A/A220S/F235A/D241A/Q271E/N326S/I356T/R371I/E406A/D419A): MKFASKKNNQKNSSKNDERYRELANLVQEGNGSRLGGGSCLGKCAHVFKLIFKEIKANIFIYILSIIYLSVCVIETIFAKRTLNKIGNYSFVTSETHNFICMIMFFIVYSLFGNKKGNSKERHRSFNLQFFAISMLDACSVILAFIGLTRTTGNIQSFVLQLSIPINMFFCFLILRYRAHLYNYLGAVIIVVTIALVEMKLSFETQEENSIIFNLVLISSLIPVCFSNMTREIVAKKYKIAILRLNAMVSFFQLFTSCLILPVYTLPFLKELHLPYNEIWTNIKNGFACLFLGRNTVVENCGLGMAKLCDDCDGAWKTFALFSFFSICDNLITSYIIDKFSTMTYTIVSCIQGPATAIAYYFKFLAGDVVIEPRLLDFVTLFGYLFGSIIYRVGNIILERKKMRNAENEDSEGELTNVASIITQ
# Procedure: as §1, §2, §3
# [2] = E207R, 50 µM CQ, 1 h, mean ± SEM
compound,measurement,setting,value
"CCN(CC)CCCC(C)Nc1ccnc2cc(Cl)ccc12 (stereo not drawn) [CQ, chloroquine]",Activity at pH 4.5,PfCRT variant E207R; [2],2.23 ± 0.16 pmol h-1 oocyte-1
same,Activity at pH 6.0,PfCRT variant E207R; [2],2.69 ± 0.23 pmol h-1 oocyte-1
same,R-value,"PfCRT variant E207R; E207R, CQ transport at pH 4.5 / pH 6.0",0.84 ± 0.04
same,E207R transport activity pH 4.5,"PfCRT variant E207R; pH 4.5, individual replicates, Fig 6b",2.49 pmol oocyte-1 h-1 and 2.35 pmol oocyte-1 h-1 and 1.85 pmol oocyte-1 h-1
same,E207R transport activity pH 6.0,"PfCRT variant E207R; pH 6.0, individual replicates, Fig 6b",3.24 pmol oocyte-1 h-1 and 2.53 pmol oocyte-1 h-1 and 2.29 pmol oocyte-1 h-1
same,E207RR-value,PfCRT variant E207R; ratio of activity pH 4.5 / pH 6.0,0.77 and 0.93 and 0.81
same,Activity at pH 4.5,"[1]; CD2, 50 µM CQ, 1 h, mean ± SEM",1.26 ± 0.05 pmol h-1 oocyte-1
same,Activity at pH 6.0,"[1]; CD2, 50 µM CQ, 1 h, mean ± SEM",2.31 ± 0.23 pmol h-1 oocyte-1
same,R-value,"[1]; CD2, CQ transport at pH 4.5 / pH 6.0",0.56 ± 0.05
same,CD2 transport activity pH 4.5,"[1]; pH 4.5, single replicates, Fig 1d left",1.18 pmol oocyte-1 h-1 and 1.21 pmol oocyte-1 h-1 and 1.38 pmol oocyte-1 h-1
same,CD2 R-value,"[1]; pH 4.5 vs pH 6.0, Fig 1d left",0.68 and 0.46 and 0.54
same,CD2 transport activity pH 6.0,"[1]; pH 6.0, single replicates, Fig 1d left",1.74 pmol oocyte-1 h-1 and 2.62 pmol oocyte-1 h-1 and 2.56 pmol oocyte-1 h-1
